Test results reported in patent US20230330041A1, “APPLICATION OF TRIS (HYDROXYMETHYL) AMINOMETHANE PHARMACEUTICALLY ACCEPTABLE SALT TO DRUGS FOR TREATING […]” (BEIJING CHANGSHENG PHARMACEUTICAL TECHNOLOGY CO., LTD., priority 2020, published 2023).
Like-named read-outs stand apart in the source and are kept apart here.

How the values were obtained:
[1] = 36.5° C., 60 rpm
Protocol: Experimental materials were as follows: a. uric acid (crystal); b.
Background: An assumption was set that a 60 kg hyperuricemic patient with a total blood volume of 4500 ml has 7 mg of uric acid dissolved in 100 ml of blood and 3 mg of uric acid crystals in 100 ml of blood.

[2] = 50 mg sodium urate in 35 ml of 0.3 mol/L solution pH 7.4±0.5, 36.5° C., 4 hours, 60 rpm
[3] = tested on: uric acid crystals in rat kidneys; conditions: for kidney weight / serum uric acid: day 5; for kidneys observed with obvious radial white lines (uric acid crystal deposition): 5 days
Protocol: Except for the normal control group, the other groups were intraperitoneally injected with 300 mg/kg of potassium oteronate and intragastrically perfused with 300 mg/kg of hypoxanthine, and the volume of injection and intragastrical perfusion were 5 ml/kg respectively. The normal control group was administered with the same volume of 0.5% CMC-Na, and the model was established at 0.5 h after the second administration every day with once a day and for five consecutive days. […] The normal and model control groups were administered with the same volume of 0.5% CMC-Na by gastric perfusion.
On the 4th day of the test, the rats were fasted overnight (about 16 h). On the 5th day of the test, the rats were weighed and anesthetized by intraperitoneal injection of 60 mg/kg sodium pentobarbital, with an injection volume of 2 ml/kg. About 0.7 mL of blood was collected from the orbit and then the kidney was removed. The whole blood was centrifuged at 6000 r/min for 10 min, the supernatant was taken and stored at -20° C. for keeping the blood uric acid content to be determined. The kidney was weighed, opened to observe the deposition of uric acid crystals in white radial pattern, and stored at -70° C. for future use.
Uric acid content determination: After the serum was rapidly remelted, the uric acid content was determined according to the method specified in the instructions for use, and the serum uric acid content was calculated.
Data processing: The data were expressed as mean ± standard deviation (x ± SD) and analyzed with SPSS 25.0 software. One-Way ANOVA was used for comparison among multiple groups. LSD test was used for homogeneity of variance, where P <0.05 was considered as statistically significant.

In the case of `Cl.NC(CO)(CO)CO` [Changsheng No. 1, trimethylol aminomethane hydrochloride], the Dissolving time ([1]; test 1: 0.3 mol/L, 0.5 ml/kg (30 ml), 7 mg dissolved + 3 mg crystalized uric acid per 100 ml) is reported as 4 h, the Dissolving time ([1]; test 2: 0.3 mol/L, 1.0 ml/kg (60 ml), 7 mg dissolved + 3 mg crystalized uric acid per 100 ml) is reported as 2 h and the Dissolving time ([1]; test 3: 0.3 mol/L, 1.5 ml/kg (90 ml), 7 mg dissolved + 3 mg crystalized uric acid per 100 ml) is reported as 2 h. The Dissolving time ([1]; test 4: 0.3 mol/L, 2.0 ml/kg (120 ml), 7 mg dissolved + 3 mg crystalized uric acid per 100 ml) was 0.5 h, the Dissolving time ([1]; test 5: 0.3 mol/L, 3.0 ml/kg (180 ml), 7 mg dissolved + 3 mg crystalized uric acid per 100 ml) was 0.5 h and the Dissolving time ([1]; test 6: 0.6 mol/L, 0.5 ml/kg (30 ml), 7 mg dissolved + 8 mg crystalized uric acid per 100 ml) was 4 h. The Dissolving time ([1]; test 7: 0.6 mol/L, 1.0 ml/kg (60 ml), 7 mg dissolved + 8 mg crystalized uric acid per 100 ml) was 2 h, the Dissolving time ([1]; test 8: 0.6 mol/L, 1.5 ml/kg (90 ml), 7 mg dissolved + 8 mg crystalized uric acid per 100 ml) was 0.5 h and the “dissolution of sodium urate crystals” value [2] was “dissolved completely”. The “uric acid crystal deposition in the kidney, dose dependence” value ([3]; 0.85-3.40 g/kg, solution at pH 7.4) was “dose-dependently reduced”, the kidney weight ([3]; 0.85 g/kg) was 2.636 ± 0.491 g and the serum uric acid ([3]; 0.85 g/kg) was 976.91 ± 172.29 µmol/L. The “kidneys observed with obvious radial white lines (uric acid crystal deposition)” value (from here on “kidneys observed”) ([3]; 0.85 g/kg/day by gavage) was 11/14, the kidney weight ([3]; 1.70 g/kg) was 2.507 ± 0.461 g and the serum uric acid ([3]; 1.70 g/kg) was 838.42 ± 3.19 µmol/L. For the same molecule, the “kidneys observed” value ([3]; 1.7 g/kg/day by gavage) was 5/14, the kidney weight ([3]; 3.40 g/kg) was 2.207 ± 0.114 g and the serum uric acid ([3]; 3.40 g/kg) was 965.17 ± 215.90 µmol/L. For the same molecule, the “kidneys observed” value ([3]; 3.40 g/kg/day by gavage, hydrochloride) was “no difference from that of the normal control group”, the “kidneys observed” value ([3]; 3.40 g/kg/day by gavage, listed as Changsheng No.1, hydrochloride) was “none of 14” and the “blood uric acid content compared with the model control group” value ([3]; all dose groups (0.85, 1.70, 3.40 g/kg)) was “effect of improvement”. For the same molecule, the “dissolution of uric acid in the solution” value (21 mg uric acid in 100 ml of 8 mM (pH 7.4) solution, stirring 1 hour) was “completely dissolved” and the “uric acid level at which the complex did not precipitate as crystals” value (after treatment with the solution, extrapolated to blood) was “up to 1260 µmol/L”.
